Test [1] concerns the target purified recombinant human GAC (GLS1) (Homo sapiens (Human), UniProt O94925). Description: GLS1 Enzymatic Activity Assay (dual-coupled enzymatic assay, resorufin/Amplex UltraRed readout).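 Also: glutamate from GAC coupled via glutamate oxidase and peroxidase to resorufin, read as fluorescence (ex 530, em 590 nm) kinetically or at 20 min, four-parameter logistic IC50 fit.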 Format: biochemical.
In a further test the test system is A549 cells. Description: Proliferation Assay (A549 viability, Cell Titer Fluor, 72 hours). Format: cell-based. Particulars: Homo sapiens, A549, 72 h. In a few lines:
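Cell Titer Fluor fluorescence after 72 h compound treatment (0.5% DMSO, 37 °C, 5% CO2) of A549 cells plated 24 h earlier at 1000/well. Four-parameter logistic fitting gave IC50.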

Data on nine molecules can be found in patent US10344025B2, “GLS1 inhibitors for treating disease” (Board of Regents, The University of Texas System, priority 2014, dated 2019).

purified recombinant human GAC (GLS1), sequence (O94925 other isoform, or with tags, fused parts or gaps): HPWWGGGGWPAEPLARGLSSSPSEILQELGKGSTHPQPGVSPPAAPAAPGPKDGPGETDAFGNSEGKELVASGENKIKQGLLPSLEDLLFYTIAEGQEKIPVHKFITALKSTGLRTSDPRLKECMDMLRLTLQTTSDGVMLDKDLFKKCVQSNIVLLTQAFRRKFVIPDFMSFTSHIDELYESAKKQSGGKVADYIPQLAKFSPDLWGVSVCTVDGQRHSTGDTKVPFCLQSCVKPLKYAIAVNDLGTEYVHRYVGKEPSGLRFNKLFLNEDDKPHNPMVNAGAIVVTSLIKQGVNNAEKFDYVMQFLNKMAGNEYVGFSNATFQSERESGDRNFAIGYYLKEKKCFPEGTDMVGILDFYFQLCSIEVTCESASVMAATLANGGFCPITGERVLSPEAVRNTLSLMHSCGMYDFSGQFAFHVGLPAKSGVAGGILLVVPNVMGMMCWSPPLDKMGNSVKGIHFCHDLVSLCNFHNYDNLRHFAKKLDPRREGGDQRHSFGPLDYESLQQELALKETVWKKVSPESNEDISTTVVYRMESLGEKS

As a reminder, the IC50 is the midpoint of a concentration-inhibition curve. By EC50 is commonly meant the midpoint of the concentration-response curve. The low end stands for an effect from little substance, the high end for a need for much substance. Consider `O=C(NCc1cccc(C(F)(F)F)c1)c1cn(CCCCn2cc(C(=O)NCC3CCCOC3)nn2)nn1` (stereo not drawn) [Example 119, N-(oxan-3-ylmethyl)-1-{4-[4-({[3-(trifluoromethyl)phenyl]methyl}carbamoyl)-1H-1,2,3-triazol-1-yl]butyl}-1H-1,2,3-triazole-4-carboxamide], for which the half-inhibitory concentration (IC50) in test [1] was in the range of 100 to 500 nM. For the same molecule, the half-maximal effective concentration (EC50) in the test with A549 cells fell in the range of 100 to 500 nM.
Consider `O=C(NCc1cccc(C(F)(F)F)c1)c1cn(CCCCn2cc(C(=O)NCC3CCOCC3)nn2)nn1` [Example 120, N-(oxan-4-ylmethyl)-1-{4-[4-({[3-(trifluoromethyl)phenyl]methyl}carbamoyl)-1H-1,2,3-triazol-1-yl]butyl}-1H-1,2,3-triazole-4-carboxamide], for which the IC50 in test [1] fell in the range of 100 to 500 nM. This molecule also showed an EC50 in the test on A549 cells of 500 to 5000 nM.
In the same order, the values of `O=C(NCc1cccc(C(F)(F)F)c1)c1cn(CCCCn2cc(C(=O)NCC3CCCCO3)nn2)nn1` (stereo not drawn) [Example 121, N-(oxan-2-ylmethyl)-1-{4-[4-({[3-(trifluoromethyl)phenyl]methyl}carbamoyl)-1H-1,2,3-triazol-1-yl]butyl}-1H-1,2,3-triazole-4-carboxamide] are 100 to 500 nM and 100 to 500 nM.
In the same order, the values of `O=C(NCc1cccc(OC(F)(F)F)c1)c1cn(CCCCn2cc(C(=O)NCc3ccnc(C(F)(F)F)c3)nn2)nn1` [Example 122, 1-{4-[4-({[3-(trifluoromethoxy)phenyl]methyl}carbamoyl)-1H-1,2,3-triazol-1-yl]butyl}-N-{[2-(trifluoromethyl)pyridin-4-yl]methyl}-1H-1,2,3-triazole-4-carboxamide] are less than 100 nM and less than 100 nM.
The matching figures for `CC(C)(O)c1ccc(CNC(=O)c2cn(CCCCn3cc(C(=O)NCc4cccc(C5CC5)c4)nn3)nn2)cn1` [Example 123, N-[(3-cyclopropylphenyl)methyl]-1-{4-[4-({[6-(2-hydroxypropan-2-yl)pyridin-3-yl]methyl}carbamoyl)-1H-1,2,3-triazol-1-yl]butyl}-1H-1,2,3-triazole-4-carboxamide]: less than 100 nM and 100 to 500 nM.
Regarding `O=C(NCc1cccc(N2CCCC2)c1)c1cn(CCCCn2cc(C(=O)NCc3cc(C(F)(F)F)ccn3)nn2)nn1` [Example 124, 1-{4-[4-({[3-(pyrrolidin-1-yl)phenyl]methyl}carbamoyl)-1H-1,2,3-triazol-1-yl]butyl}-N-{[4-(trifluoromethyl)pyridin-2-yl]methyl}-1H-1,2,3-triazole-4-carboxamide], the IC50 in test [1] is less than 100 nM. Moreover, the 50% effective concentration (EC50) with A549 cells is less than 100 nM.
Take `COCCOc1cccc(CNC(=O)c2cn(CCCCn3cc(C(=O)NCc4cc(C(F)(F)F)ccn4)nn3)nn2)c1` [Example 125, 1-{4-[4-({[3-(2-methoxyethoxy)phenyl]methyl}carbamoyl)-1H-1,2,3-triazol-1-yl]butyl}-N-{[4-(trifluoromethyl)pyridin-2-yl]methyl}-1H-1,2,3-triazole-4-carboxamide]: the concentration for half-maximal inhibition (IC50) in test [1] was less than 100 nM. The molecule also displayed an EC50 in the test on A549 cells of 100 to 500 nM.
In the same order, the values of `O=C(NCc1cccc(OC(F)(F)F)c1)c1cn(CCCCn2cc(C(=O)NCc3cnccn3)nn2)nn1` [Example 126, N-(pyrazin-2-ylmethyl)-1-{4-[4-({[3-(trifluoromethoxy)phenyl]methyl}carbamoyl)-1H-1,2,3-triazol-1-yl]butyl}-1H-1,2,3-triazole-4-carboxamide] are 100 to 500 nM and 100 to 500 nM.
The matching figures for `O=C(NCc1ccnnc1)c1cn(CCCCn2cc(C(=O)NCc3cccc(OC(F)(F)F)c3)nn2)nn1` [Example 127, 1-(4-{4-[(pyridazin-4-ylmethyl)carbamoyl]-1H-1,2,3-triazol-1-yl}butyl)-N-{[3-(trifluoromethoxy)phenyl]methyl}-1H-1,2,3-triazole-4-carboxamide]: 100 to 500 nM and 500 to 5000 nM.
